In brackets after ≈: the same amount, converted by molar mass. Where two headings read alike, the source gives them in different places.

Series [1] can be described thus: solubility in an aqueous medium at pH 1. It counts as physicochemical.
The conditions of series [2]: prior-art method; cited from earlier work.

Regarding `Cn1c(=NN)sc2cc(S(=O)(=O)O)ccc21` [MBTH sulfonate, 3-methyl-2-(sulfonyl)-benzothiazolonehydrazone], the solubility (as a rule, the concentration that dissolves in the medium under given conditions) in series [1] (read-out: solubility) was found to be 6 mg/mL.

For `Cn1c(=NN)sc2ccccc21` [MBTH, 3-methylbenzothiazolonehydrazone], the solubility in series [1] (read-out: solubility in an aqueous medium) came to 48 mg/mL (≈ 268 mM). In addition, the stability entry in series [2] is reported as “low stability”.

The values are drawn from US4101381A, “Method and reagent for the determination of substances forming hydrogen peroxide” (Boehringer Mannheim GmbH, priority 1976, dated 1978).
